Values quoted from earlier work, collected in US20250099590A1, “HIGH DENSITY ULTRASOUND COUPLING GEL AND METHODS OF USE THEREOF” (ZetrOZ Systems LLC, priority 2023, published 2025).

Tests used:
[1] = test system: osteoarthritis-induced pain; conditions: SAM treatment with 1% topical diclofenac, after 7 days
musculoskeletal injuries = conditions: SAM with 2.5% diclofenac, after 4-weeks of daily home-use

For O=C(O)Cc1ccccc1Nc1c(Cl)cccc1Cl [diclofenac], the “Western Ontario McMaster Outcome (WOMAC)” value [1] is listed as “improved”, the osteoarthritis-induced pain [1] is listed as “significantly alleviated” and the “global health and function” value (musculoskeletal injuries) is listed as “global health and functional improvement”. For the same compound, the pain (musculoskeletal injuries) was “significant pain reduction”.
